The subject of data set [1] is SF763. The experiment in a line: Xenograft in athymic mice. The note with it: xenografted athymic mice. Type of data set: in vivo. Here is the method:
(§1) Cell lines were grown in appropriate medium (see Appendix 1). Cells were harvested at or near confluency with 0.05% Trypsin-EDTA and pelleted at 450×g for 10 min. Pellets were resuspended in sterile PBS or media (without FBS) to a particular concentration and the cells were implanted into the hindflank of mice. Tumor growth was measured over 3 to 6 weeks using venier calipers. Tumor volumes were calculated as a product of length×width×height unless otherwise indicated. P values were calculated using the Students' t-test.
(§2) PDGF-R expression was measured qualitatively using a western blot.

Data set [2] relates to SF767. The experiment in a line: Xenograft in athymic mice. Type of data set: in vivo. The note with it: xenografted athymic mice. The protocol: as §1, §2
A short description of data set [3]: LD50 of A10 in BALB/c mice. Conditions: mouse, in vivo, ip. Here is the method: All animals wee observed for 7 to 14 days after the last dose was administered. The LD50 was calculated from a plot of % mortality versus dose (log M) using a four parameter logistic equation.
For data set [4], the system named is SKOV-3 cells. The experiment in a line: Soft agar assay (SAA). Type of data set: cell-based. Conditions: Homo sapiens, SK-OV-3; PDGF-R expression -. Here is the method:
(§3) After a 2 to 3 week incubation at 37° C., colonies larger than 50 μm were quantified using an Omnicon 3800 Tumor Colony counter.
as §2

For data set [5], the system named is C6 cells. In words: Soft agar assay (SAA). Type of data set: cell-based. Conditions: Rattus norvegicus, PDGF-R expression ++. Here is the method:
as §3, §2

Data set [6] has as its system SKOV-3T cells. In words: Soft agar assay (SAA). Type of data set: cell-based. The note with it: Homo sapiens; PDGF-R expression ++. Here is the method:
as §3, §2

Data set [7] has as its system SF767T cells. The experiment in a line: Soft agar assay (SAA). Type of data set: cell-based. Conditions: Homo sapiens; PDGF-R expression ++. Here is the method: as §3, §2
Data set [8] relates to epidermal growth factor (EGF) receptor. Conditions: listed as leflunomide; cited from earlier work.
In data set [9] the test system is glioblastoma multiformae (GBM) primary tumor cells. In words: Growth of primary tumor cells from glioblastoma patients. Type of data set: cell-based, human. The protocol: Viable tumors were placed into medium by the pathologist at the referring institution immediately after surgery, and shipped to Oncotech by overnight delivery. As soon as a tumor was received, a portion was fixed in formalin for sectioning and the remainder trimmed of necrotic, connective and adipose tissues. All tumor manipulations were performed aseptically. The remaining tumor was placed into a Petri dish containing 5 mL of medium (RPMI 1640 supplemented with 10% FBS, 100 IU/mL penicillin, […] streptomycin and L-glutamine) and disaggregated mechanically with scissors into pieces 2 mm or smaller. […]
After enzymatic dispersion into a near single-cell suspension, tumor cells were filtered through nylon mesh, washed in medium, suspended in soft agarose (0.12%) and plated at approximately 20,000 cells per well onto an agarose underlayer (0.4%) in 24-well plates. […] After the appropriate labeling period, tissue culture plates were heated at 60° C. to melt the agarose, the cells harvested with a micro-harvester onto glass fiber filters and the radioactivity determined. Percent inhibition (PCI) was determined using the formula: PCI=1-(CPM treatment group […] CPM control group). Determinations of control group proliferation were performed in quadruplicate, while treatment group proliferation was determined in triplicate. […]

For data set [10] the following is noted: in vivo. An excerpt:
Many cancer therapeutics are cytotoxic in nature and have profound effects on blood cells resulting in cytopenia.

“Also recorded” adds a separate entry of the source.

For the compound `Cc1oncc1C(=O)Nc1ccc(C(F)(F)F)cc1` [Compound A10, 5-methylisoxazole-4 carboxylic acid-(4-trifluromethyl)-anilide], the “In Vivo inhibition” value amounted to 35% in data set [1] and 18% in [2]. The compound further showed a median lethal dose (LD50) in [3] of 94 mg/kg. For the same compound, the IC50 is 6.3 µM in [4]; 400 nM in data set [5]; 300 nM in data set [6]; 500 to 2000 nM in data set [7]; 39 to 198 µM in data set [9] (Homo sapiens, range over six patients, read-out: IC50, GBM tumors). Besides, in data set [8], the “autophosphorylation of the EGF receptor” value was “dose dependently, inhibited; also recorded: inhibit EGF induced EGF receptor autophosphorylation”. The tumor cell growth entry in data set [9] (0 to 400 mM) is “tumor cell growth decreased for both types of tumors”. For the same compound, the “effects on blood cell” value in [10] was “No effects on blood cell were observed”.
